Our source for the IC50 values is patent US9486455B2, “Compounds for modulating TRPV3 function” (HYDRA BIOSCIENCES, INC., priority 2007, dated 2016).

pIC50: −log10 of the molar value. Where two headings read alike, the source gives them in different places. A value given as a limit tells only on which side of the number the result lay.

In one series the target is T1, human (h) TRPV3 (Homo sapiens, UniProt Q8NET8).
T1 construct: expressed in transfected cells; host or cells: HEK293/TREx, tetracycline-induced
T1 sequence (Q8NET8 1-790): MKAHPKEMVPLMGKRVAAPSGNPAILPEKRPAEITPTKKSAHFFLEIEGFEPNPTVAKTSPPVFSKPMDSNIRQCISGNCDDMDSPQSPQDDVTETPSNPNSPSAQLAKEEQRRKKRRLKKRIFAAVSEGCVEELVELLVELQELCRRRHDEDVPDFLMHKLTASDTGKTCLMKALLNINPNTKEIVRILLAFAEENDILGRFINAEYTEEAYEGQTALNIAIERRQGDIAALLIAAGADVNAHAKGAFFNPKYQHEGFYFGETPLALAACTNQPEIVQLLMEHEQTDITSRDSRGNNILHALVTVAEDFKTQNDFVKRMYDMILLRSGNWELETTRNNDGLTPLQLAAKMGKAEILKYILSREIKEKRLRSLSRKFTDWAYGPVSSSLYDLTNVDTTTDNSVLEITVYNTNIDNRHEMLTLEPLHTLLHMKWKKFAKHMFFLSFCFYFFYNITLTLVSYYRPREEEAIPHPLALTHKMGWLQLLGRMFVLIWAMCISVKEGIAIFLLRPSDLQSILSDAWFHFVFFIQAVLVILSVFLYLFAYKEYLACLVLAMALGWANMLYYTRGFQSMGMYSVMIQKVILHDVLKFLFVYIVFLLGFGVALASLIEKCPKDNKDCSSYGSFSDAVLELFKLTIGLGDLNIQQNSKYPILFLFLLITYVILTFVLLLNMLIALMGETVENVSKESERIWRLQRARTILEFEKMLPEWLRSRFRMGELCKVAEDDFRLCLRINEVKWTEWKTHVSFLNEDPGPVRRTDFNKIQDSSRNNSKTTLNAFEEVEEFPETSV
In words: Whole-cell patch clamp, human TRPV3-mediated currents.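 Also: compounds tested at concentrations up to 30 µM.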 Type of series: cell-based. An excerpt: (§1) Whole-cell patch clamp experiments permit the detection of currents through the TRPV3 channel in the cell line described above. A glass electrode is brought into contact with a single cell and the membrane is then ruptured, permitting control of the voltage of the cell membrane and measurement of currents flowing across the membrane using the amplifier attached to the electrode. A perfusion system permits control of the extracellular solution, including the addition of blockers and activators of the current. The current can be activated by heating this solution to 28° C. or warmer or by addition of 20 μM 2-APB to the solution.
(§2) TRPV3 cells were induced 20-48 hours, removed from growth plates, and replated at low density (to attain good single-cell physical separation) on glass coverslips for measurement. In some cases, cells were grown in low density overnight on glass coverslips. Patch clamp recordings were made in the whole-cell mode with a holding potential of −40 mV. Every 5 seconds, a voltage ramp was applied from −120 to +100 mV, 400 ms in duration. Currents elicited were quantified at −80 mV and +80 mV. The internal solution consisted of 140 mM cesium aspartate, 10 mM EGTA, 2.27 mM MgCl2, 1.91 mM CaCl2 and 10 mM HEPES, pH to 7.2 with KOH; with 50 nM calculated free Ca^2+. External solution was Ringer's solution described above. Upon addition of 2-APB or upon heating of the extracellular solution as described above, TRPV3 current was induced only in TRPV3-expressing cells and not in parental HEK293 TREx cells. […] Removal of the stimulus caused most of the current to go away, and inhibitor addition could still inhibit this current. […]
(§3) P1 refers to the Phase 1 current for human (h) and rat (r) TRPV3, and P2 refers to the Phase 2 current for human (h) and rat (r) TRPV3.

The target in a further series is T2, rat (r) TRPV3 (Rattus norvegicus, UniProt Q4QYD9).
T2 construct: expressed in transfected cells
T2 sequence (Q4QYD9 1-791): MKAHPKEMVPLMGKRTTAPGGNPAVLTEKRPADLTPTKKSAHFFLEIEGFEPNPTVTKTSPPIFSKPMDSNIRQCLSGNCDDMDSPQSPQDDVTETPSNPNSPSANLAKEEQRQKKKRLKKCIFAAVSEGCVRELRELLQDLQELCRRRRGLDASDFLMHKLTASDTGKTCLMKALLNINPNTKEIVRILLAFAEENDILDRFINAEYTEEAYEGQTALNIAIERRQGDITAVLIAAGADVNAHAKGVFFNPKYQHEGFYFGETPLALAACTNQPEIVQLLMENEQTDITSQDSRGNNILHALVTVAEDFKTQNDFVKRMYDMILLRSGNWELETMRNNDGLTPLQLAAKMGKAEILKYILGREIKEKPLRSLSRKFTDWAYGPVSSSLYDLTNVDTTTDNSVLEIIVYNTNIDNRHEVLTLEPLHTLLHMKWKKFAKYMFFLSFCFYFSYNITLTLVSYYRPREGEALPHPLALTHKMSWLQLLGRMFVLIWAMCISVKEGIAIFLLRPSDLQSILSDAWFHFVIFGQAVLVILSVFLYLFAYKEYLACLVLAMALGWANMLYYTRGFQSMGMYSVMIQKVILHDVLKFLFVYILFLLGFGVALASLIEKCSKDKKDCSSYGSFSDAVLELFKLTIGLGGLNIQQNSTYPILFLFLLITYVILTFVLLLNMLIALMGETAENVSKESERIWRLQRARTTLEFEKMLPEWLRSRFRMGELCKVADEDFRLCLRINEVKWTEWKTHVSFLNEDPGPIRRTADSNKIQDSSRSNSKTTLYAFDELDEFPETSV
In words: Whole-cell patch clamp, rat TRPV3-mediated currents.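 Also: compounds tested at concentrations up to 30 µM.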 It is filed as cell-based.
Source text: as §1, §2, §3
In general terms: The patch-clamp technique gives a direct electrical read-out from membranes.

A further series deals with hERG (Homo sapiens, UniProt Q12809). In words: in vitro.
Chain of hERG (Q12809 whole entry): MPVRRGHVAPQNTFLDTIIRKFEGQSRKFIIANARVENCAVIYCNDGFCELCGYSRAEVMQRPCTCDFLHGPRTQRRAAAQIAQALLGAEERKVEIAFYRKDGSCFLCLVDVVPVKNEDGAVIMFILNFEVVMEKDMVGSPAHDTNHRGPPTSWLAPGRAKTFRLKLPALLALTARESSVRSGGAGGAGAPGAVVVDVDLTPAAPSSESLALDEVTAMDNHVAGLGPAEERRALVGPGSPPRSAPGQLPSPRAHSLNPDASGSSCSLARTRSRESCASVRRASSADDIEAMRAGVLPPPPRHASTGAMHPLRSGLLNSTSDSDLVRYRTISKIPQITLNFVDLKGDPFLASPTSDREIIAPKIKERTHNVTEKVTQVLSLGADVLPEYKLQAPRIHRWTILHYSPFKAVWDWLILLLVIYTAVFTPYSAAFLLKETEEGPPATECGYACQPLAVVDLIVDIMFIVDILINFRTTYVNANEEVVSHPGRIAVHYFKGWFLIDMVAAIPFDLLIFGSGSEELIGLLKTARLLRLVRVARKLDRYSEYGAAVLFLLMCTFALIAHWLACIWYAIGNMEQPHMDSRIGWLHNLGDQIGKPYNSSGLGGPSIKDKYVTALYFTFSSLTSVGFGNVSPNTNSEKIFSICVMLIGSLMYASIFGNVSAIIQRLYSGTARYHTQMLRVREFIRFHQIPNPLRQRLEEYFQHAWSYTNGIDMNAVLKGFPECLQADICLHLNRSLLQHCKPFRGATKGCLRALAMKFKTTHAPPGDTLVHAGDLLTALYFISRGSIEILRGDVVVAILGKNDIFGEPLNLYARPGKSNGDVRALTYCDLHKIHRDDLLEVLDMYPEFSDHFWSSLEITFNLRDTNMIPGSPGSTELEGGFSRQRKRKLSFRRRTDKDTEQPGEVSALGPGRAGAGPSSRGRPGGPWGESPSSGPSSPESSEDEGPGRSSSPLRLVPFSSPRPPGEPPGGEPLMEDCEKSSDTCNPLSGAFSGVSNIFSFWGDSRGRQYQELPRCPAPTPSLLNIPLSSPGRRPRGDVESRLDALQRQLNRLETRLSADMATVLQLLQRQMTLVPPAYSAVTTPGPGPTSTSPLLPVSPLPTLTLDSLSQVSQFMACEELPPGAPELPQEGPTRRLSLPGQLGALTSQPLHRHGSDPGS
Another series deals with T3, TRPV3 channel (Homo sapiens, UniProt Q8NET8).
T3 construct: expressed in transfected cells; host or cells: HEK293/TREx (Invitrogen), tetracycline-induced
T3 sequence (Q8NET8 1-790): T1 sequence (Q8NET8 1-790)
In words: High-throughput screening assay: Ca2+ rise after 2-APB activation in HEK293/TREx cells inducibly expressing TRPV3. Type of series: cell-based. The conditions noted are these: read-out: IC50 for inhibition of TRPV3 activity; Ca2+ flux, Fura-2, 150 μM 2-APB. An excerpt:
The assay depends on detection of the rise in intracellular Ca^2+ concentration ([Ca^2+]i) following channel activation in cells inducibly expressing the TRPV3 channel. Ca^2+ rise is quantified with the use of fluorescent Ca^2+ indicators that are loaded into cells and thereafter indicated the [Ca^2+]i. Ca^2+ influx follows activation of the TRPV3 channel. Compounds inhibiting this [Ca^2+]i rise are considered hits for further investigation.
The commercially available HEK293/TREx line (Invitrogen) was stably transfected with a TRPV3 construct and screened by immunostaining to find clones with TRPV3 expression following stimulation with 1 μg/ml tetracycline. Clonal TRPV3-expressing cells were maintained in the growth medium recommended by the manufacturer supplemented with 100 μg/ml hygromycin to promote retention of the TRPV3 construct. After growing to near confluency, cells are plated at a density of ˜25,000 cells/well in 384 well plates in the presence of 1 μg/ml tetracycline, and allowed to grow for 20-30 hrs. A nearly confluent monolayer results. […] These controls defined a screening window, and “hits” were defined as those test compounds inhibiting the fluorescence response by at least 40%.
On the technique in general: Calcium flux is commonly read through the fluorescence of an indicator in the cells.

Method for hERG: Compounds of interest can be tested against these channels at concentrations up to 30 μM, and the resulting data can be used to estimate IC50 for inhibition of the activity of these other ion channels.

Consider `COc1nccc(/C=C/c2nc3ccccc3c(=O)n2-c2c(C)cccc2C)c1O` [Compound 37], for which the pIC50 was at least 6.30 on human (h) TRPV3 (Phase 1 inward current, read-out: P1 In (h)); at least 6.30 on human (h) TRPV3 (Phase 1 outward current, read-out: P1 Out (h)); at least 6.30 on human (h) TRPV3 (Phase 2 inward current, read-out: P2 In (h)); at least 6.30 at human (h) TRPV3 (Phase 2 outward current, read-out: P2 Out (h)); at least 6.30 at rat (r) TRPV3 (Phase 1 inward current, read-out: P1 In (r)); at least 6.30 on rat (r) TRPV3 (Phase 1 outward current, read-out: P1 Out (r)). Also, the pIC50 at rat (r) TRPV3 (Phase 2 inward current, read-out: P2 In (r)) is at least 6.30; at rat (r) TRPV3 (Phase 2 outward current, read-out: P2 Out (r)), at least 6.30; at hERG it was at most 4.70.
On to `Cc1cccc(C)c1-n1c(/C=C/c2cccc3cn[nH]c23)nc2ccccc2c1=O` [Compound 40], for which the pIC50 on TRPV3 channel is over 5.30.
